Molecules are shown by their SMILES.

A short description of data set [1]: Cell viability assay. In kind it is cell-based. Particulars: human, MCF-10A mammary gland epithelial normal cells.
Data set [2] relates to lung cancer (A-549) cell line. Put plainly: Antiproliferative assay, A-549. In kind it is cell-based. Particulars: Homo sapiens, A549, read-out: Antiproliferative activity IC50 ± SEM, A-549.
In data set [3] the test system is breast cancer (MCF-7) cell line. Put plainly: Antiproliferative assay, MCF-7. The data set is classed as cell-based. Particulars: Homo sapiens, MCF7, read-out: Antiproliferative activity IC50 ± SEM, MCF-7.
In data set [4] the test system is pancreatic cancer (Panc-1) cell line. Put plainly: Antiproliferative assay, Panc-1. Particulars: Homo sapiens, PANC-1, read-out: Antiproliferative activity IC50 ± SEM, Panc-1. The data set is classed as cell-based.
The subject of data set [5] is colon cancer (HT-29). The data set is described as follows: Antiproliferative assay, HT-29. The following applies: Homo sapiens, HT-29, read-out: Antiproliferative activity IC50 ± SEM, HT-29. The data set is classed as cell-based.
The subject of data set [6] is four human cancer cell lines (A-549, MCF-7, Panc-1, HT-29). The data set is described as follows: Antiproliferative assay, average over four cancer cell lines. In kind it is cell-based. The following applies: for Fold lower antiproliferative potency (GI50) than 9c: GI50 relative to 9c; for GI50: Homo sapiens, read-out: Antiproliferative activity, Average (GI50).
The target in data set [7] is EGFR (Homo sapiens, UniProt P00533). Put plainly: EGFR-TK inhibitory assay. In kind it is biochemical.
Chain of EGFR (Homo sapiens, UniProt P00533) (P00533 669-1210): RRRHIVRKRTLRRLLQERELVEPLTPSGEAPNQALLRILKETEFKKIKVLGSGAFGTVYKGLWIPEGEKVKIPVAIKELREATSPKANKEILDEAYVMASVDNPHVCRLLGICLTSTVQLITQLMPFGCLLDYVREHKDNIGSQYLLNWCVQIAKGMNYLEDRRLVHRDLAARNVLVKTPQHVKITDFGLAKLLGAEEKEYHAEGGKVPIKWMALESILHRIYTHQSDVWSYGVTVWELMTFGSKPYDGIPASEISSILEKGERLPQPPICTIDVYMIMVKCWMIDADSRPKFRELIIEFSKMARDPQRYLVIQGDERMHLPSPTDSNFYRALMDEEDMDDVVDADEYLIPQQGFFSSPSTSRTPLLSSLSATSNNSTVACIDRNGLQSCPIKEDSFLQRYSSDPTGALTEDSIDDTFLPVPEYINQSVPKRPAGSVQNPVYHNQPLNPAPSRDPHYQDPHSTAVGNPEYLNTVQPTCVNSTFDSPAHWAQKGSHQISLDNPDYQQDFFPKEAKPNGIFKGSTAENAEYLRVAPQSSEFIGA
Data set [8] has as its target BRAF^V600E (Mus musculus, UniProt P28028, V585E). The data set is described as follows: BRAF^V600E inhibitory assay. The data set is classed as biochemical.
Data set [9] addresses VEGFR-2 (Homo sapiens, UniProt P35968). The data set is described as follows: VEGFR-2 inhibitory assay. The data set is classed as biochemical.
Data set [10] relates to EGFR. Put plainly: Western blotting, EGFR level in A549 cells. The data set is classed as cell-based, human. The following applies: untreated control OD 0.695.
The test system of data set [11] is VEGFR-2. The data set is described as follows: Western blotting, VEGFR-2 level in A549 cells. The data set is classed as cell-based, human. The following applies: untreated control OD 0.662.
In data set [12] the test system is BRAF^V600E. Put plainly: Western blotting, BRAF^V600E level in A549 cells. The following applies: untreated control OD 0.507. In kind it is cell-based, human. On the technique in general: A western blot detects proteins with antibodies after separation by electrophoresis.

Chain of BRAF^V600E (Mus musculus, UniProt P28028, V585E) (P28028 whole entry V585E): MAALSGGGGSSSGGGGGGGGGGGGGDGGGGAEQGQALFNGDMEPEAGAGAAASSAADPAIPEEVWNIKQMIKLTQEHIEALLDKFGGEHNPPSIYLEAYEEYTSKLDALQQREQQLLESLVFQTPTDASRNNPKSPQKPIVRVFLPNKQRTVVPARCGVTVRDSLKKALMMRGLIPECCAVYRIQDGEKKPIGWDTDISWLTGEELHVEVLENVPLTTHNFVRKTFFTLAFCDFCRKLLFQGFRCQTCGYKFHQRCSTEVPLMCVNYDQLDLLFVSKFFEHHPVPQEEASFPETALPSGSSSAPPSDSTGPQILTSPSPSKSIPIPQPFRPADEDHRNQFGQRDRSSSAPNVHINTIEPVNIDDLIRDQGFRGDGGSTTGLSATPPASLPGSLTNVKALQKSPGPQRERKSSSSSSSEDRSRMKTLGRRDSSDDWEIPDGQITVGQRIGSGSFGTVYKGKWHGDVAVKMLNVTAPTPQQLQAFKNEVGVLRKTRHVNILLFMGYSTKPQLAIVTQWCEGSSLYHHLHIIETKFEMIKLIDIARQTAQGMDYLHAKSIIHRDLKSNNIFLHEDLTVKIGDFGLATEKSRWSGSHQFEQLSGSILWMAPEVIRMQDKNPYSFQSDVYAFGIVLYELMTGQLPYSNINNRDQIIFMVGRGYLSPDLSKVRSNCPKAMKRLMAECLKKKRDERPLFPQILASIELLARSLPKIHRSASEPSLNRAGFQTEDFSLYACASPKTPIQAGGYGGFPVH
Chain of VEGFR-2 (Homo sapiens, UniProt P35968) (P35968 20-1356): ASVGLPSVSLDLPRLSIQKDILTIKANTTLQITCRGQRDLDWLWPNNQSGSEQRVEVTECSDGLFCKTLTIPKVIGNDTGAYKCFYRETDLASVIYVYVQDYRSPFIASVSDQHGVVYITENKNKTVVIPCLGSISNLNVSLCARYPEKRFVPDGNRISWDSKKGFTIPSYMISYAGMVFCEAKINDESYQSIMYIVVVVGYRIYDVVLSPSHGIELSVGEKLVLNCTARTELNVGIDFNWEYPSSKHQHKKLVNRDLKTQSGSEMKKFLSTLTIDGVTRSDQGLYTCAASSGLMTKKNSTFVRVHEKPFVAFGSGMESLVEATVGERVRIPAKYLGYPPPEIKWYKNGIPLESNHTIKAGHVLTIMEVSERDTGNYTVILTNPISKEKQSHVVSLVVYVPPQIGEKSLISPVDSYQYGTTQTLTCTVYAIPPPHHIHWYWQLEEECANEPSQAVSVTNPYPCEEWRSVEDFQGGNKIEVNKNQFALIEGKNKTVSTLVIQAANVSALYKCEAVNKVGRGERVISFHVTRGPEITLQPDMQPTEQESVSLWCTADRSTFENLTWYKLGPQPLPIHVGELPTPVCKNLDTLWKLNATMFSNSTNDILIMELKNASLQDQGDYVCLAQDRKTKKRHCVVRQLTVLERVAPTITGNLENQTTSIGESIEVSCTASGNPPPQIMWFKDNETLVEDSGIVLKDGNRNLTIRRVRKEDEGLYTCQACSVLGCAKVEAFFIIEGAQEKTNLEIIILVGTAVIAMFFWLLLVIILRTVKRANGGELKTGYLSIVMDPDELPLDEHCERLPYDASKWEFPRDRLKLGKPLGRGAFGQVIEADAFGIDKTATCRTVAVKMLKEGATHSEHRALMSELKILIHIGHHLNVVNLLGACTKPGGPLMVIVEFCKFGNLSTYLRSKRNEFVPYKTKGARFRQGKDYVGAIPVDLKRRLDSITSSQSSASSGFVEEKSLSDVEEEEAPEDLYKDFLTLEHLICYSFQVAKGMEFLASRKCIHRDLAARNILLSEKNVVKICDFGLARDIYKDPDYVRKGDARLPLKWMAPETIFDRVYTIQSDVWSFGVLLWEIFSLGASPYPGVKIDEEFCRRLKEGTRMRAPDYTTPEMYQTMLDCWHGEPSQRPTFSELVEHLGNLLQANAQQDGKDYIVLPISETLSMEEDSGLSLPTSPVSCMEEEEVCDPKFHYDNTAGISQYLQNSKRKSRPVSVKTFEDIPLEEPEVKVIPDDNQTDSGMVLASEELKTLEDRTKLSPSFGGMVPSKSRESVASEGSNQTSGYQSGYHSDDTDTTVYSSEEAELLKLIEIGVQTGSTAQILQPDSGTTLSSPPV

In data set [1], `Br.c1ccc(NC2=NN=C(c3ccccc3)CS2)cc1` [Compound 9a, 5-Phenyl-2-(phenylamino)-6H-1,3,4-thiadiazin-3-ium bromide] showed a viability at 96 h, 50 µM of 91%. In addition, the IC50 in data set [2] was 0.043 ± 0.004 µM; in data set [3] it was 0.04 ± 0.004 µM; in [4] it was 0.044 ± 0.004 µM; in data set [5], 0.044 ± 0.004 µM; in [7] it was 0.092 ± 0.007 µM; in data set [8], 0.083 ± 0.006 µM. The midpoint of inhibition in data set [9], the IC50, lay at 0.0028 ± 2e-05 µM. Also, the “Fold lower antiproliferative potency (GI50) than 9c” value in data set [6] stood at 1.2 fold. Also, the GI50 in data set [6] worked out at 0.043 µM.
In data set [1], `Br.C=CC/N=C1/NN=C(c2ccccc2)CS1` [Compound 9b, (Z)-N-(5-Phenyl-3,6-dihydro-2H-1,3,4-thiadiazin-2-ylidene)prop-2-en-1-aminium bromide] registered a viability at 96 h, 50 µM of 90%. For the same compound, the IC50 in data set [2] came to 0.056 ± 0.005 µM; in [3] it was 0.052 ± 0.005 µM; in [4], 0.058 ± 0.005 µM; in [5], 0.058 ± 0.005 µM. For the same compound, the “Fold lower antiproliferative potency (GI50) than 9c” value in data set [6] stood at 1.5 fold. Further, the GI50 in data set [6] worked out at 0.056 µM.
On to `Br.c1ccc(C2=NN/C(=N/C3CCCCC3)SC2)cc1` [Compound 9c, (Z)-N-(5-Phenyl-3,6-dihydro-2H-1,3,4-thiadiazin-2-ylidene) cyclohexanaminium bromide], for which the viability at 96 h, 50 µM in data set [1] came to 92%. In addition, the 50% inhibitory concentration (IC50) was found to be 0.037 ± 0.003 µM in data set [2]; 0.035 ± 0.003 µM in data set [3]; 0.038 ± 0.003 µM in data set [4]; 0.04 ± 0.004 µM in data set [5]; 0.086 ± 0.005 µM in data set [7]; 0.074 ± 0.005 µM in data set [8]. This compound showed a half-inhibitory concentration (IC50) in [9] of 0.0022 ± 2e-05 µM. For the same compound, in [6], the GI50 came to 0.038 µM. Moreover, in data set [10], the “Western blotting OD, EGFR” value was 0.288. Also, in [11], the “Western blotting OD, VEGFR-2” value was 0.346. Moreover, the “Western blotting OD, BRAF^V600E” value in data set [12] came out at 0.219.
The compound `Brc1ccc(C2=NN=C(Nc3ccccc3)SC2)cc1` [Compound 9d, 5-(4-Bromophenyl)-2-(phenylamino)-6H-1,3,4-thiadiazin-3-ium bromide] yielded a viability at 96 h, 50 µM in data set [1] of 89%. The IC50 in data set [2] was 0.048 ± 0.004 µM; in data set [3] it was 0.044 ± 0.004 µM; in [4], 0.048 ± 0.004 µM; in data set [5] it was 0.047 ± 0.004 µM; in [7], 0.096 ± 0.007 µM; in [8] it was 0.088 ± 0.006 µM. The same compound gave an IC50 in data set [9] of 0.00325 ± 3e-05 µM. In addition, the GI50 in data set [6] worked out at 0.047 µM.
In data set [1], `C/N=C1/NN=C(c2ccc(Br)cc2)CS1` [Compound 9e, (Z)-N-(5-(4-Bromophenyl)-3,6-dihydro-2H-1,3,4-thiadiazin-2-ylidene) methanaminium bromide] gave a viability at 96 h, 50 µM of 92%. Moreover, the IC50 in [2] came out at 0.062 ± 0.006 µM; in [3] it was 0.058 ± 0.005 µM; in data set [4] it was 0.064 ± 0.006 µM; in data set [5], 0.064 ± 0.006 µM. Moreover, the GI50 in data set [6] amounted to 0.062 µM.
In data set [1], `CC/N=C1/NN=C(c2ccc(Br)cc2)CS1` [Compound 9f, (Z)-N-(5-(4-Bromophenyl)-3,6-dihydro-2H-1,3,4-thiadiazin-2-ylidene)ethan aminium bromide] gave a viability at 96 h, 50 µM of 89%. The IC50 stood at 0.065 ± 0.006 µM in [2], 0.064 ± 0.006 µM in data set [3], 0.066 ± 0.006 µM in [4] and 0.066 ± 0.006 µM in [5]. Moreover, the GI50 in data set [6] was 0.066 µM.
With `Brc1ccc(C2=NN/C(=N/C3CCCCC3)SC2)cc1` [Compound 9g, (Z)-N-(5-(4-Bromophenyl)-3,6-dihydro-2H-1,3,4-thiadiazin-2-ylidene) cyclohexanaminium bromide], the viability at 96 h, 50 µM in [1] was determined as 88%. The IC50 was 0.054 ± 0.005 µM in data set [2], 0.051 ± 0.005 µM in [3], 0.056 ± 0.005 µM in data set [4] and 0.056 ± 0.005 µM in [5]. In addition, the 50% growth inhibitory concentration (GI50) in data set [6] amounted to 0.054 µM.
Take `C#Cc1cccc(Nc2ncnc3cc(OCCOC)c(OCCOC)cc23)c1` [Erlotinib, reference compound]: the IC50 was found to be 0.03 ± 0.003 µM in data set [2], 0.04 ± 0.003 µM in data set [3], 0.03 ± 0.003 µM in data set [4] and 0.03 ± 0.003 µM in data set [5].

In general, viability refers to a per cent measure of how many cells are alive, often set against a control. Low values mean a greater loss of cells, high ones better survival. As a reminder, the IC50 is the concentration at which inhibition is half-maximal. By GI50 is commonly meant the concentration giving 50% growth inhibition.
